One data set concerns FATZO mice. Briefly: in vivo study in polygenic FATZO mouse model of metabolic syndrome, T2D and obesity. How it is done:
(§1) In order to test the hypothesis that a non-absorbable compound which is confined to the GI tract can favorably affect metabolic syndrome T2D and related conditions in vivo studies were carried out with I/II using a polygenic mutant strain of mice that develop metabolic syndrome, T2D and obesity when fed a high fat (“Western type”) diet. This polygenic mouse model (“FATZO” mouse), developed by Eli Lilly Co. and PreClinOmics (now Crown Bio, Indianapolis, Ind.), has been described in detail (PLoS ONE, 12, 1-15 (2017). FATZO mice on a high fat diet generally gain weight, gradually become obese, and develop hyperglycemia, hypertension, glucose intolerance, insulin insensitivity and severe T2D. A group of FATZO mice were placed on a high fat diet (HFD) for an initial three-week ‘base’ period after which they were divided into two groups: Group 1 (the treated group) was maintained on a HFD along with 5 mg/day of I/II, administered in water by gavage. […] Blood glucose levels of the treated group were stabile and after six weeks about 50% below those of the untreated group. […] A third group of FATZO mice was maintained on a standard diet of ordinary mouse chow and also treated with 5 mg/day of I/II.

Data set [1] in a line: analysis of blood of treated mice by HPLC/mass spectrometry (absorption from GI tract). The format is in vivo. The following applies: treated FATZO mice. How it is done: as §1
The subject of the next data set is GLP-1. Briefly: in vitro protection of GLP-1 from methyl glyoxal (UPLC/TOF-MS). The format is biochemical. The following applies: 0.62 mM peptide, 30 mM phosphate buffer pH 7.4, 20 equiv methyl glyoxal, 37 degrees C, 3 hours, 5 equiv compound relative to methyl glyoxal. How it is done:
In order to test further the hypothesis that intestinal peptide hormones might be compromised by the chemical action of gut microbial products, in vitro studies were carried out with GLP-1, PYY and Oxyntomodulin. For these studies methyl glyoxal was selected as electrophile because it is a well-known microbial metabolite and also relevant to metabolic syndrome, T2D and diabetic neuropathy; see Diabetes, 63, 50-52 (2014); Biochemical Soc. Transact, 42, 450-456 (2014); Clinical Sci., 128, 839-861 (2015); Hypertension, 56, 471-476 (2010). Methyl glyoxal has also been implicated in neurodegenerative diseases—see Neuroscience, 9, 1-12 (2015). […] Methyl glyoxal can be detected in blood in amounts that correlate with the severity of T2D. […]
The results of the in vitro studies that have been carried out using methyl glyoxal and each of three intestinal peptide hormones, GLP-1, PYY (a satiety-sensing hormone), and Oxyntomodulin, can be summarized as follows: • 1. […] The mixture was cooled to ambient temperature and analyzed by ultra-high pressure liquid chromatography (Agilent 1290 UPLC) coupled with detection by triple time of flight mass spectrometry (Scitex 5600 TRIPTOF mass spectrometer), each aliquot being diluted with 20% aqueous acetic acid. • 2. […]

Data set [2] can be described thus: rate studies of reaction with methyl glyoxal by reverse phase HPLC. The following applies: pH 7, aqueous solution.
Where [3] appears, read: standard diet of ordinary mouse chow, 5 mg/day, six weeks.

For `NCc1nc2cc(S(=O)(=O)O)ccc2[nH]1` [I, 2-(Aminiomethyl)-1H-benzol[d]imidazole-5-sulfonate], the pKa in “physchem” is about 7.7.
As to `NCc1nc2cc(S(=O)(=O)O)ccc2[nH]1` [I/II], the “fasting blood glucose level below that of untreated group” value with FATZO mice (high fat diet, 5 mg/day by gavage in water, after six weeks) is “about 50%”. Besides, in the data set with FATZO mice (high fat diet, 5 mg/day by gavage, six weeks (untreated gained 2% per week)), the body weight gain entry is reported as “no weight gain”. Besides, in the data set with FATZO mice (setting [3]), the behavior entry is “completely normal behavior”, the body weight gain entry is given as “no weight gain” and the “increase in fasting blood glucose levels” value was “no increase in fasting blood glucose levels”. Also, the “absorption from the GI tract after oral administration” value in data set [1] was “no detectable absorption”. For the same compound, the “test compound in blood” value in data set [1] (oral administration, HPLC/mass spectrometry) is under 0.01 mg. per mouse. The GLP-1 remained unchanged result with GLP-1 was “greater than 95%”.
Regarding `CN(C)C(=N)N=C(N)N` [metformin], the “reactivity (rate) toward methyl glyoxal relative to N-tosyl-arginine methyl ester” value in data set [2] is recorded as “less than one-tenth the rate”.
